This is an account of results in patent publication US12678507B2, “Protein tyrosine kinase 6 (PTK6) degradation / disruption compounds and methods of use” (Icahn School of Medicine at Mount Sinai, priority 2018, dated 2026).

One assay relates to MDA-MB231 cells. Description: 3D Matrigel culture of MDA-MB231 triple negative breast cancer cells (growth, invasive branching, viability). The assay is classed as cell-based. The conditions noted are these: 1 μM, 3 days, 3D cultures (FIG. 6). As to the method: FIG. 6a. PTK6 degraders, but not kinase activity inhibitor suppress viability in 3D cultures. MDA-MB231 triple negative breast cancer cells were seeded into 3D Matrigel cultures (4×10^3 cells/well) and treated with indicated PTK6 degraders, negative control compounds or PTK6 kinase activity inhibitor at 1 uM for 5 days with re-feeding of compound after 3 days in culture. Viability was assessed using 3D Cell Titer glo (Promega). FIG. 6b. Expression of PTK6 in cells treated with PTK6 degraders, negative control compounds or PTK6 kinase activity inhibitor was assessed after 24 hour treatment in monolayer cultures with 1 uM of compound. Cells were lysed and proteins were resolved and probed with anti-PTK6 antibody (Cell Signaling)
FIG. 12a. […] Expression of PTK6 in cells treated with PTK6 degraders, negative control compounds or PTK6 kinase activity inhibitor was assessed after 24 hour treatment in monolayer cultures with 1 uM of compound. […] Viability was assessed using 3D Cell Titer glo (Promega). […]
MDA-MB231 triple negative breast cancer cells were seeded into 3D Matrigel cultures (4×10^3 cells/well) and treated with indicated PTK6 degraders, negative control compounds or PTK6 kinase activity inhibitor at 1 uM for 6 days with re-feeding of compound after 3 days in culture (FIG. 12B). Viability was assessed using 3D Cell Titer glo (Promega). […]

The target of assay [1] is T1, PTK6 (Homo sapiens, UniProt Q13882).
T1 construct: endogenous in cells; host or cells: MDA-MB231 cells (ATCC)
T1 sequence (Q13882 whole entry): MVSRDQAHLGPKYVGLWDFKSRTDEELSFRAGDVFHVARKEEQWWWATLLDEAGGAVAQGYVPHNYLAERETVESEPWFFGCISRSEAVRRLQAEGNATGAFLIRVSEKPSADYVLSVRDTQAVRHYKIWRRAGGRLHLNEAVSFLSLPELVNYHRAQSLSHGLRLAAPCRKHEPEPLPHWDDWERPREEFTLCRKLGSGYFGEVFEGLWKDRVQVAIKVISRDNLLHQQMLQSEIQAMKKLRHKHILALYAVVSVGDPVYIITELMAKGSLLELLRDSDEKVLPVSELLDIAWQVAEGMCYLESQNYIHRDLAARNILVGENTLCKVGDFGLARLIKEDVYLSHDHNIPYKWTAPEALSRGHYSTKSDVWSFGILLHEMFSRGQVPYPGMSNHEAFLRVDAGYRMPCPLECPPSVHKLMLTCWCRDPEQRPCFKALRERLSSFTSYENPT
The assay can be described thus: Western blot of PTK6 protein levels in MDA-MB231 cells. The conditions noted are these: MDA-231 (MDA-MB231) cells, 500 nM, 24 hours, Western blot (FIGS. 3-5). The assay is classed as cell-based. As for the experimental part:
FIGS. 2-5. Effects of exemplary compounds on reducing PTK6 protein levels in breast cancer cells. Triple negative MDA-MB231 cells were treated for 24 hours with 500 nM, 2 uM or 2.5 uM of test compound and lysed. Proteins were resolved by SDS/PAGE and immunoblotted with antibody to PTK6 (Santa Cruz, Cell Signaling) or GAPDH loading control (Cell Signaling).
FIG. 13. PTK6 degraders suppress PTK6 expression. MDA-MB231 cells were treated with compounds (500 nM or 1 uM) for 24 hours in monolayer cultures. Cells were lysed and lysates were probed with anti-PTK6 antibody.
MDA-MB231 cells were treated with DMSO or indicated compounds at 2.5 uM, 2 uM or 500 nM for 24 hours.
MDA-MB231 cells were treated with compounds (500 nM or 1 uM) for 24 hours in monolayer cultures. Cells were lysed and lysates were probed with anti-PTK6 antibody.
(§1) Cells were lysed in 1% NP-40 lysis buffer containing NaF, Na3VO4, Leupeptin, PMSF, aprotinin, and phosphatase inhibitor (PhosSTOP, Roche) as described previously (Irie et al., 2010). Cleared cell lysates were stored at −80° C. and were analyzed by western analysis as described previously (Irie et al., 2010).

The subject of a further assay is CP70 cells. Description: 3D culture viability of platinum resistant ovarian cancer cells CP70. The assay is classed as cell-based. The conditions noted are these: 2 uM, 6 days, 3D culture (FIG. 8). As to the method: FIG. 8. Treatment with PTK6 degraders, but not kinase activity inhibitor, suppress viability of chemotherapy-resistant ovarian cancer cells (CP70). Cells were seeded into 3D Matrigel cultures and treated with compounds (2 uM) for 6 days. Viability was assessed using 3D Cell Titre glo assay (Promega)
Platinum resistant ovarian cancer cells CP70 were treated with PTK6 degrader or kinase inhibitor P21d (2 uM) for 6 days in 3D culture. Viability after 6 days was assessed by 3D Cell Titer glo.

For a further assay, the system named is MCF7 cells. Description: 3D Cell Titer Glo viability of MCF7 ER+ breast cancer cells. The assay is classed as cell-based. The conditions noted are these: 0, 1, 2 and 5 μM, 4 days, 3D Cell Titer Glo (FIG. 7). As to the method:
FIG. 7a. PTK6 degrader treatment suppresses growth of ER+ breast cancer cells. ER+ breast cancer cells (MCF-7) were treated with indicated concentrations of top candidate degraders, negative control compounds or PTK6 kinase activity inhibitor for 24 hours, lysed and proteins were resolved by SDS-PAGE. PTK6 expression was interrogated by Western analysis. FIG. 7b. MCF-7 cells were seeded into 3D Matrigel cultures and treated with indicated PTK6 degraders or PTK6 kinase inhibitor for 4 days. Viability was quantified using 3-D Cell Titer glo (Promega).
MCF7 cells were treated with YX39-103, YX39-105, and compound 21d at 0, 1, 2 and 5 μM for 4 days using 3D Cell Titer Glo (Promega) assay conditions.
MDA-MB231, MCF-7, OV2008 and Hey C2 cells (3,000 cells) were added to 8-well chamber slides (BD Biosciences) coated with 50 μl of growth factor-reduced Matrigel™ Matrix basement membrane (Corning). Treatment with degrader was begun later the same day. Media was replaced every 3 days. Cells were imaged using the Axiovert 25 inverted microscope (Carl Zeiss AB). CellTiter-Glo 3D Cell Viability Assay (Promega) was used to quantitate viability of cells grown in Matrigel™ in 96-well plates.

The target of assay [2] is T1, PTK6. Description: PTK6 degradation after MG132 proteasome inhibitor pretreatment (Western). The assay is classed as cell-based. The conditions noted are these: MDA-MB231 cells, MG132 10 uM 2 hours, then degrader 4 hours (FIG. 9). As to the method: FIG. 9. PTK6 degrader suppresses PTK6 expression in a proteasome-dependent manner. MDA-MB231 cells (left) or OV2008 cells (right) were pre-treated with DMSO or MG-132 (10 uM) for two hours, then treated for an additional 4 hours with DMSO or PTK6 degrader at the indicated concentrations.
MDA-MB231 cells were pre-treated with MG132 (10 uM) or DMSO for 2 hours, then treated for additional 4 hours with PTK6 degrader YX39-105 or DMSO. Cells were lysed and expression of PTK6 was assessed by Western analysis.
as §1

The target in assay [3] is T1, PTK6. The assay can be described thus: PTK6 degradation after PTK6 kinase inhibitor P21d pretreatment (Western). The assay is classed as cell-based. The conditions noted are these: MDA-MB231 cells, P21d 5 uM 2 hours, then degrader 24 hours (FIG. 10). As for the experimental part: FIG. 10. PTK6 kinase activity inhibitor pre-treatment prevents PTK6 degrader-dependent suppression of PTK6 expression. MDA-MB231 cells in monolayer cultures were pre-treated with DMSO or PTK6 kinase activity inhibitor (5 uM), then treated for an additional 24 hours with PTK6 degrader, YX39-105. Cells were lysed and expression of PTK6 was assessed by Western analysis.
MDA-MB231 cells pretreated with DMSO or PTK6 kinase activity inhibitor, P21d, (5 uM) for 2 hours were subsequently treated with PTK6 degrader YX39-105 for 24 hours. Expression of PTK6 was assessed by Western analysis.
as §1

The conditions of assay [4]: compared with shRNA, all cell lines evaluated; cited from earlier work.
Another assay concerns TNBC cells. The conditions noted are these: compared with PTK6 shRNA; cited from earlier work.

Turning to `Cc1ncsc1-c1ccc(CNC(=O)[C@@H]2C[C@@H](O)CN2C(=O)[C@@H](NC(=O)CCCCCCNC(=O)CN2CCN(C(=O)c3ccc(Nc4nc(C5CC5)cn5c(-c6cn[nH]c6)cnc45)c(F)c3)CC2)C(C)(C)C)cc1` [YX39-103, (2S,4R)-1-((S)-2-(7-(2-(4-(4-((6-cyclopropyl-3-(1H-pyrazol-4-yl)imidazo[1,2-a]pyrazin-8-yl)amino)-3-fluorobenzoyl)piperazin-1-yl)acetamido)heptanamido)-3,3-dimethylbutanoyl)-4-hydroxy-N-(4-(4-methylthiazol-5-yl)benzyl)pyrrolidine-2-carboxamide], the “growth and invasive branching in 3D cultures” value in the assay on MDA-MB231 cells was “significantly suppressed growth and invasive branching”. Moreover, on PTK6 [1], the “reducing PTK6 protein levels / suppress PTK6 expression” value was “effective in reducing PTK6 protein levels”. Besides, in the assay on CP70 cells, the “viability of chemotherapy-resistant ovarian cells (CP70)” value is listed as “Suppressed Viability”. The “viability of MCF7 cells” value with MCF7 cells is recorded as “significantly impaired viability of MCF7 cells in a dose-dependent manner”.

With `Cc1ncsc1-c1ccc(CNC(=O)[C@@H]2C[C@@H](O)CN2C(=O)[C@@H](NC(=O)CCCCCCCCNC(=O)CN2CCN(C(=O)c3ccc(Nc4nc(C5CC5)cn5c(-c6cn[nH]c6)cnc45)c(F)c3)CC2)C(C)(C)C)cc1` [YX39-105, (2S,4R)-1-((S)-2-(9-(2-(4-(4-((6-cyclopropyl-3-(1H-pyrazol-4-yl)imidazo[1,2-a]pyrazin-8-yl)amino)-3-fluorobenzoyl)piperazin-1-yl)acetamido)nonanamido)-3,3-dimethylbutanoyl)-4-hydroxy-N-(4-(4-methylthiazol-5-yl)benzyl)pyrrolidine-2-carboxamide], the “growth and invasive branching in 3D cultures” value in the assay with MDA-MB231 cells was “significantly suppressed growth and invasive branching”. For the same compound, the “reducing PTK6 protein levels / suppress PTK6 expression” value on PTK6 [1] is recorded as “effective in reducing PTK6 protein levels”. On PTK6 [2], the “PTK6 degradation with MG132 pretreatment” value was “Prevents PTK6 from being Degraded”. Also, the “viability of chemotherapy-resistant ovarian cells (CP70)” value in the assay with CP70 cells was “Suppressed Viability”. In addition, the “PTK6 degradation with PTK6 inhibitor pretreatment” value on PTK6 [3] is on record as “Prevents PTK6 from being Degraded”. The “viability of MCF7 cells” value in the assay on MCF7 cells is on record as “significantly impaired viability of MCF7 cells in a dose-dependent manner”.

For the compound `Cc1ncsc1-c1ccc(CNC(=O)[C@@H]2C[C@@H](O)CN2C(=O)[C@@H](NC(=O)COCCOCC(=O)N2CCN(C(=O)c3ccc(Nc4nc(C5CC5)cn5c(-c6cn[nH]c6)cnc45)c(F)c3)CC2)C(C)(C)C)cc1` [YX79-41, (2S,4R)-1-((S)-2-(2-(2-(2-(4-(4-((6-cyclopropyl-3-(1H-pyrazol-4-yl)imidazo[1,2-a]pyrazin-8-yl)amino)-3-fluorobenzoyl)piperazin-1-yl)-2-oxoethoxy)ethoxy)acetamido)-3,3-dimethylbutanoyl)-4-hydroxy-N-(4-(4-methylthiazol-5-yl)benzyl)pyrrolidine-2-carboxamide], on PTK6 [1], the “reducing PTK6 protein levels / suppress PTK6 expression” value is listed as “potently suppress PTK6 expression”.

With `Cc1ncsc1-c1ccc(CNC(=O)[C@@H]2C[C@@H](O)CN2C(=O)[C@@H](NC(=O)COCCOCCOCC(=O)N2CCN(C(=O)c3ccc(Nc4nc(C5CC5)cn5c(-c6cn[nH]c6)cnc45)c(F)c3)CC2)C(C)(C)C)cc1` [YX79-42, (2S,4R)-1-((S)-2-(tert-butyl)-14-(4-(4-((6-cyclopropyl-3-(1H-pyrazol-4-yl)imidazo[1,2-a]pyrazin-8-yl)amino)-3-fluorobenzoyl)piperazin-1-yl)-4,14-dioxo-6,9,12-trioxa-3-azatetradecanoyl)-4-hydroxy-N-(4-(4-methylthiazol-5-yl)benzyl)pyrrolidine-2-carboxamide], the “reducing PTK6 protein levels / suppress PTK6 expression” value at PTK6 [1] is recorded as “potently suppress PTK6 expression”.

For the compound `Cc1ncsc1-c1ccc(CNC(=O)[C@@H]2C[C@@H](O)CN2C(=O)[C@@H](NC(=O)CCCCCCC(=O)NCCN2CCN(C(=O)c3ccc(Nc4nc(C5CC5)cn5c(-c6cn[nH]c6)cnc45)c(F)c3)CC2)C(C)(C)C)cc1` [YX79-59, N^1-(2-(4-(4-((6-cyclopropyl-3-(1H-pyrazol-4-yl)imidazo[1,2-a]pyrazin-8-yl)amino)-3-fluorobenzoyl)piperazin-1-yl)ethyl)-N^8-((S)-1-((2S,4R)-4-hydroxy-2-((4-(4-methylthiazol-5-yl)benzyl)carbamoyl)pyrrolidin-1-yl)-3,3-dimethyl-1-oxobutan-2-yl)octanediamide], on PTK6 [1], the “reducing PTK6 protein levels / suppress PTK6 expression” value is “potently suppress PTK6 expression”.

Take `Cc1ncsc1-c1ccc(CNC(=O)[C@@H]2C[C@@H](O)CN2C(=O)[C@@H](NC(=O)COCCOCC(=O)NCCN2CCN(C(=O)c3ccc(Nc4nc(C5CC5)cn5c(-c6cn[nH]c6)cnc45)c(F)c3)CC2)C(C)(C)C)cc1` [YX79-65, (2S,4R)-1-((S)-2-(tert-butyl)-14-(4-(4-((6-cyclopropyl-3-(1H-pyrazol-4-yl)imidazo[1,2-a]pyrazin-8-yl)amino)-3-fluorobenzoyl)piperazin-1-yl)-4,11-dioxo-6,9-dioxa-3,12-diazatetradecanoyl)-4-hydroxy-N-(4-(4-methylthiazol-5-yl)benzyl)pyrrolidine-2-carboxamide]: the “reducing PTK6 protein levels / suppress PTK6 expression” value at PTK6 [1] is “potently suppress PTK6 expression”.

For `O=C(c1ccc(Nc2nc(C3CC3)cn3c(-c4cn[nH]c4)cnc23)c(F)c1)N1CCOCC1` [compound 21d], in assay [4], the 3D growth result was “did not consistently phenocopy the effects of shRNA”. Moreover, the “EMT regulation of TNBC cells” value in the assay on TNBC cells is given as “phenocopied the effects of PTK6 shRNA”.
